Legend:
[1] = test system: 2.2.15 cells; assay: Toxicity analysis by uptake of neutral red dye; settings: at the concentrations used for the antiviral evaluations
Protocol: Toxicity analysis were performed in 96-well flat bottomed tissue culture plates. Cells for the toxicity analyses were cultured and treated with test compounds with the same schedule and under identical culture conditions as used for the antiviral evaluations. Each compound was tested at 4 concentrations, each in triplicate cultures. Uptake of neutral red dye was used to determine the relative level of toxicity 24 hours following the last treatment. The absorbance of internalized dye at 510 nM (A510) was used for the quantative analysis. Values are presented as a percentage of the average A510 values (±standard deviations) in 9 separate cultures of untreated cells maintained on the same 96-well plate as the test compounds.

[2] = test system: HBV; assay: Antiviral evaluation: extracellular (virion) HBV DNA levels produced by 2.2.15 cells; format: cell-based, hepatitis B virus; settings: for depression of extracellular (virion) HBV DNA levels: 9 consecutive daily doses
Protocol: Details of the assay methodology can be found in: Korba and Gerin, Antiviral Res. 19: 55-70 (1992) and Korba, Antiviral Res. 29: 49-52 (1996). The antiviral evaluations were performed on six separate cultures per each of four test concentrations. All wells, in all plates, were seeded at the same density and at the same time.
Due to the inherent variations in the levels of both intracellular and extracellular HBV DNA, only depressions greater than 3.0-fold for HBV virion DNA from the average levels for these HBV DNA forms in untreated cells are generally considered to be statistically significant [P<0.05] (Korba and Gerin, Antiviral Res. 19: 55-70, 1992). Typical values for extracellular HBV virion DNA in untreated cells range from 80 to 150 pg/ml culture medium (average of approximately 92 pg/ml).
For reference, the manner in which the hybridization analyses were performed for these experiments results in an equivalence of approximately 1.0 pg of extracellular HBV DNA/ml culture medium to 3×10^5 viral particles/ml.
For the antiviral test analyses, confluent cultures were maintained on 96-well flat bottomed tissue culture plates. Two separate (replicate) plates were used for each drug treatment. A total of 3 cultures on each plate were treated with each of the dilutions of antiviral agents (6 cultures per dilution). Cultures were treated with 9 consecutive daily doses of the test compounds. Medium was changed daily with fresh test compounds. Only extracellular (virion) HBV DNA levels were followed.

Row | Compound | toxicity (greater than 50% depression of neutral red dye uptake levels observed in untreated cells) [1] | anti-HBV activity/potency compared with previous reports or earlier analyses [2] | depression of extracellular (virion) HBV DNA levels [2]
1 | Nc1nc2c(ncn2CCC(CO)CO)c(=O)[nH]1 [PCV, 2-amino-1,9-dihydro-9-[4-hydroxy-3-(hydroxymethyl)butyl]-6H-purin-6-one, reference compound] | No significant toxicity | higher than previously reported | significant depressions
2 | Nc1nc2c(ncn2C2COC(CO)O2)c(=O)[nH]1 (stereo not drawn) [DXG] |  |  | significant and selective depressions
3 | Nc1ccn([C@@H]2CS[C@H](CO)O2)c(=O)n1 [3TC, (−)β,L,2′,3′-dideoxy-3′thiacytidine] | No significant toxicity |  | 
4 | Nc1nc(N)c2ncn([C@H]3CO[C@@H](CO)O3)c2n1 [DAPD] |  | lower than that observed in earlier analyses | significant and selective depressions
5 | Nc1nc(=O)n([C@@H]2CS[C@H](CO)O2)cc1F [FTC, β-2-Hydroxymethyl-5-(5-fluorocytosin-1-yl)-1,3-oxathiolane] | No significant toxicity | lower than that observed in earlier analyses | significant and selective depressions
6 | Cc1cn([C@H]2O[C@@H](CO)[C@H](O)[C@H]2F)c(=O)[nH]c1=O [L-FMAU, 2′-fluoro-5-methyl-β-L-arabinofuranolyluridine] |  | lower than that observed in earlier analyses | significant and selective depressions

— patent publication US7572800B2, “Combination therapy to treat hepatitis B virus” (Gilead Sciences, Inc., priority 1998, dated 2009)
